Measurements taken from patent publication US20070155757A1, “Use of pyrimidine compounds in the preparation of parasiticides” (priority 2004, published 2007).

Structure (SMILES)	melting point [°C]
Nc1c(Oc2cccc(F)c2)ncnc1Oc1cccc(F)c1 [Compound 1.4, 4,6-bis-(3-fluorophenoxy)-pyrimidin-5-ylamine]	110 to 112
Cc1cc(Oc2ncnc(Oc3ccc(F)c(C)c3)c2N)ccc1F [Compound 1.20, 4,6-bis-(4-fluoro-3-methylphenoxy)-pyrimidin-5-ylamine]	155 to 156
NC(=O)Cc1c(Oc2ccc(F)c(C(F)(F)F)c2)ncnc1Oc1ccc(F)c(C(F)(F)F)c1 [Compound 1.29, [4,6-bis-(4-fluoro-3-(trifluoromethyl)phenoxy)]-pyrimidin-5-yl-acetamide]	122 to 124
